In patent US20260200890A1, “ADAR1 INHIBITORS AND METHODS OF USING THE SAME” (AVAMMUNE THERAPEUTICS INC., priority 2022, published 2026):
pEC50: −log10 of the molar value.

Molecular target: T1, ADAR1 (Homo sapiens, UniProt P55265)
T1 construct: endogenous in cells; host or cells: p110 KO A549 dual cells
T1 sequence (P55265 1-1226): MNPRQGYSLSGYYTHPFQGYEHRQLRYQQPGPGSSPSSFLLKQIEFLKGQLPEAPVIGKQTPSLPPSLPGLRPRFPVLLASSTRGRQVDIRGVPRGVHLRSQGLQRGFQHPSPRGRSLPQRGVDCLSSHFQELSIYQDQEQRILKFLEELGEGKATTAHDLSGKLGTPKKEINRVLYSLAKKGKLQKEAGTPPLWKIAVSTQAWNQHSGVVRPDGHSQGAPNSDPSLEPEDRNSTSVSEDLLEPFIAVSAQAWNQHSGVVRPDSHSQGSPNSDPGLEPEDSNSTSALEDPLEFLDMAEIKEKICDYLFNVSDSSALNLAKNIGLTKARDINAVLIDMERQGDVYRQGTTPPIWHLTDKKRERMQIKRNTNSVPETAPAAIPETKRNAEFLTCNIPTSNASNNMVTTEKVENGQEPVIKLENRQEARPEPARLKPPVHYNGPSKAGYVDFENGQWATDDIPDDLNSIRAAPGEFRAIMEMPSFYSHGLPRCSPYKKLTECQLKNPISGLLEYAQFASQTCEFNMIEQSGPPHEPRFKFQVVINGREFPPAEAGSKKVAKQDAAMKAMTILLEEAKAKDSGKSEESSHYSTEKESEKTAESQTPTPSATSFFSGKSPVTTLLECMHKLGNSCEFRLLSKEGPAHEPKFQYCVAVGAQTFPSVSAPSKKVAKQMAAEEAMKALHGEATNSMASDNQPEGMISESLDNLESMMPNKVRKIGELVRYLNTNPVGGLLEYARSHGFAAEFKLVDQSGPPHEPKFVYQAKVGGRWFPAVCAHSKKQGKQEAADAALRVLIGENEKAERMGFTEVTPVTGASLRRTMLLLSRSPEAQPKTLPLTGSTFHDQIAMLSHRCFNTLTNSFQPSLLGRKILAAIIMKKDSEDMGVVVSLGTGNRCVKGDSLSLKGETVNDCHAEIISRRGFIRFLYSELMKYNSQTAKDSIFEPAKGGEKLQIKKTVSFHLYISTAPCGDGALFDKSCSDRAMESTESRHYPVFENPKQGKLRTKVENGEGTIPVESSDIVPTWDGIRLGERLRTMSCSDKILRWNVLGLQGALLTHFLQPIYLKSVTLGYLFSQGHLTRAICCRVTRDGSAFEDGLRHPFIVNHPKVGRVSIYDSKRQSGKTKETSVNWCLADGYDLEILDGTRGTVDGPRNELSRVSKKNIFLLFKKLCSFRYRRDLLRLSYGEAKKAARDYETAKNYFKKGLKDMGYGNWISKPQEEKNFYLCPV
Experiment: ADAR1 Inhibition Assay (IFN fold-induction, Quanti-Luc luminescence, p110 KO A549 dual cells)
Format: cell-based
Conditions: IFN fold-induction vs DMSO, 24 and 48 h
Experimental: An ADAR1 Inhibition Assay was used to determine the biological activity (EC50) of compounds disclosed herein. 100 μL of p110 KO A549 dual cell suspension in supplemented DMEM (20,000 cells per well) was added into a flat bottom 96 well plate. Next day, post media change, 180 μL of supplemented DMEM was added. 20 μL of test compound or positive control was added to the respective wells (Final concentration of DMSO is 1%). The plate was incubated for 24 and 48 hours at 37° C. in a 5% CO2 incubator. After 24 and 48 h, 20 μL of cell suspension was taken in black well plates and 50 μL of Quanti-Luc was added to each well and luminescence was measured using a microplate reader (Spectra Max). IFN fold-induction was plotted considering DMSO as control using the relative luminescence unit (RLU) values. (Fold induction: Sample RLU/Average DMSO RLU).

| Structure (SMILES) | pEC50 |
| --- | --- |
| CCOC(=O)c1cc(-c2ccccc2)sc1NC(=O)COCc1cccc(N(S(C)(=O)=O)S(C)(=O)=O)c1 [Compound 179] | < 4.00 |
| CCOC(=O)c1cc(-c2ccccc2)sc1NC(=O)Cn1cc(-c2cccc(NS(C)(=O)=O)c2)nn1 [Compound 181] | < 4.00 |
| CCOC(=O)c1cc(-c2ccccc2)sc1NC(=O)Cn1nncc1-c1cccc(NS(C)(=O)=O)c1 [Compound 182] | < 4.00 |
| CCOC(=O)c1cc(-c2ccccc2)sc1NC(=O)COC(=O)c1cccc(NS(C)(=O)=O)n1 [Compound 183] | < 4.00 |
| CCOC(=O)c1cc(-c2ccccc2)sc1NC(=O)C1CCN(Cc2cccc(NS(C)(=O)=O)c2)C1 (stereo not shown) [Compound 184] | < 4.00 |
| CS(=O)(=O)Nc1cccc(C(=O)OCC(=O)Nc2nnc(-c3ccccc3)o2)c1 [Compound 185] | < 4.00 |
| CN(C)C(=O)c1cc(-c2ccccc2)sc1NC(=O)COC(=O)c1cccc(NS(C)(=O)=O)c1 [Compound 186] | < 4.00 |
| CCOC(=O)c1cc(-c2ccccc2)sc1NC(=O)COC(=O)c1cccc(N)c1 [Compound 187] | < 4.00 |
| CCOC(=O)c1cc(-c2ccccc2F)sc1NC(=O)COC(=O)c1cccc(NS(C)(=O)=O)c1 [Compound 188] | < 4.00 |
| CCOC(=O)c1c(NC(=O)COC(=O)c2cccc(NS(C)(=O)=O)c2)sc(-c2ccccc2)c1C [Compound 190] | < 4.00 |
| COC(=O)c1cc(-c2ccccc2)sc1NC(=O)COC(=O)c1cccc(NS(C)(=O)=O)c1 [Compound 191] | < 4.00 |
| CCOC(=O)c1cc(-c2cccc(C)c2)sc1NC(=O)COC(=O)c1cccc(NS(C)(=O)=O)c1 [Compound 192] | < 4.00 |
| CCOC(=O)c1cc(-c2ccccc2)sc1NC(=O)COC(=O)c1cccc(S(=O)(=O)NC(=O)CC)c1 [Compound 193] | < 4.00 |
| CS(=O)(=O)Nc1cccc(NC(=O)CSc2nc(N)nc3nc[nH]c23)c1 [Compound 194] | < 4.00 |
| CCOC(=O)c1cc(-c2ccccc2)sc1NC(=O)C(C)OC(=O)c1cccc(NS(C)(=O)=O)c1 (stereo not shown) [Compound 195] | < 4.00 |
| CCOC(=O)c1cc(Cc2ccccc2)sc1NC(=O)COC(=O)c1cccc(NS(C)(=O)=O)c1 [Compound 196] | < 4.00 |
| CCOC(=O)c1cc(-c2ccccc2C#N)sc1NC(=O)COC(=O)c1cccc(NS(C)(=O)=O)c1 [Compound 197] | < 4.00 |
| CCOC(=O)c1cc(-c2ccc(N3CCNCC3)cc2)sc1NC(=O)COC(=O)c1cccc(NS(C)(=O)=O)c1 [Compound 198] | < 4.00 |
| CCOC(=O)c1cc(-c2ccccc2)sc1NC(=O)COC(=O)c1cccc(N(C)C)c1 [Compound 199] | < 4.00 |
| CS(=O)(=O)Nc1cccc(C(=O)OCC(=O)n2cnc3cnc(N)nc32)c1 [Compound 200] | < 4.00 |
| CCOC(=O)c1cc(-c2ccccc2OC(F)(F)F)sc1NC(=O)COC(=O)c1cccc(NS(C)(=O)=O)c1 [Compound 201] | < 4.00 |
| CCOC(=O)c1cc(-c2cccc(OC(F)(F)F)c2)sc1NC(=O)COC(=O)c1cccc(NS(C)(=O)=O)c1 [Compound 202] | < 4.00 |
| CC(C)(C)OC(=O)COC(=O)c1cc(-c2ccccc2)sc1NC(=O)COC(=O)c1cccc(NS(C)(=O)=O)c1 [Compound 203] | < 4.00 |
| CCOC(=O)c1cc(C)sc1NC(=O)COC(=O)c1cccc(NS(C)(=O)=O)c1 [Compound 204] | < 4.00 |
| CCOC(=O)c1cc(-c2ccc(OC)cc2)sc1NC(=O)COC(=O)c1cccc(NS(C)(=O)=O)c1 [Compound 205] | < 4.00 |
| CCOC(=O)c1nc(-c2ccccc2)sc1NC(=O)C1CCN(C(=O)c2cccc(NS(C)(=O)=O)c2)C1 (stereo not shown) [Compound 206] | < 4.00 |
| CCOC(=O)c1cc(-c2ccccc2)sc1NC(=O)COCc1cccc(NS(C)(=O)=O)c1 [Compound 207] | < 4.00 |
| CCOC(=O)c1cc(-c2ccccc2)sc1NC(=O)COC1CCN(C(=O)c2cccc(NS(C)(=O)=O)c2)CC1 [Compound 208] | < 4.00 |
| CS(=O)(=O)Nc1cccc(C(=O)OCC(=O)Nc2sc(-c3ccccc3)cc2C(=O)OCC(=O)O)c1 [Compound 209] | < 4.00 |

Continued, values first:

| pEC50 | Structure (SMILES) |
| --- | --- |
| < 4.00 | CCOC(=O)c1cc(-c2ccccc2)sc1NC(=O)C1CC2(CC2)CN1C(=O)c1cccc(NS(C)(=O)=O)c1 (stereo not shown) [Compound 148] |
| < 4.00 | CCOC(=O)c1cc(-c2ccccc2)sc1NC(=O)/C=C/c1cccc(NS(C)(=O)=O)c1 [Compound 149] |
| < 4.00 | CCOC(=O)c1cc(-c2ccccc2)sc1NC(=O)CN(C)C(=O)c1cccc(NS(C)(=O)=O)c1 [Compound 151] |
| < 4.00 | CCOC(=O)c1cc(-c2ccccc2)sc1NC(=O)C1CCCN(C(=O)c2cccc(NS(C)(=O)=O)c2)C1 (stereo not shown) [Compound 152] |
| ≥ 4.60 | CS(=O)(=O)Nc1cccc(C(=O)OCC(=O)Nc2nnc(-c3ccccc3)s2)c1 [Compound 153] |
| < 4.00 | CS(=O)(=O)Nc1cccc(C(=O)OCC(=O)Nc2sc(-c3ccccc3)cc2C(=O)O)c1 [Compound 154] |
| < 4.00 | CCOC(=O)c1cc(-c2ccccc2)sc1NC(=O)CN(C(=O)c1cccc(NS(C)(=O)=O)c1)C1CC1 [Compound 155] |
| ≥ 4.60 | CCOC(=O)c1cc(-c2ccccc2)sc1NC(=O)[C@H]1CCN(C(=O)c2cccc(NS(C)(=O)=O)c2)C1 [Compound 156] |
| < 4.00 | CCOC(=O)c1cc(-c2ccccc2)sc1NC(=O)[C@H]1CCN(C(=O)c2cccc(NS(C)(=O)=O)c2)C1 [Compound 157] |
| < 4.00 | CCOC(=O)c1cc(-c2ccccc2)sc1NC(=O)C1CCN(C(=O)c2cccc(NS(=O)(=O)N3CCOCC3)c2)C1 (stereo not shown) [Compound 158] |
| < 4.00 | CCOC(=O)c1cc(-c2cc[nH]n2)sc1NC(=O)COC(=O)c1cccc(NS(C)(=O)=O)c1 [Compound 159] |
| < 4.00 | CCOC(=O)c1cc(-c2ccccc2)sc1NC(=O)COC1CCN(S(C)(=O)=O)CC1 [Compound 160] |
| < 4.00 | CCOC(=O)c1cc(-c2ccccc2)sc1NC(=O)CN(C(=O)c1cccc(NS(C)(=O)=O)c1)C(C)C [Compound 162] |
| < 4.00 | CCOC(=O)c1cc(-c2ccccc2)sc1NC(=O)CC1CCN(C(=O)c2cccc(NS(C)(=O)=O)c2)CC1 [Compound 164] |
| < 4.00 | CCOC(=O)c1cc(-c2ccccc2)sc1NC(=O)CCc1cccc(NS(C)(=O)=O)c1 [Compound 165] |
| < 4.00 | CCOC(=O)c1cc(-c2ccccc2)sc1NC(=O)COC(=O)Nc1cccc(NS(C)(=O)=O)c1 [Compound 166] |
| < 4.00 | CCOC(=O)c1cc(-c2ccccc2)sc1NC(=O)N1CCN(C(=O)c2cccc(NS(C)(=O)=O)c2)CC1 [Compound 167] |
| < 4.00 | CCOC(=O)c1cc(-c2ccccc2)sc1NC(=O)C1CCN(C(=O)c2cccc(NS(C)(=O)=O)c2)CC1 [Compound 168] |
| < 4.00 | CCOC(=O)c1cc(-c2ccccc2)sc1NC(=O)CCNc1cccc(NS(C)(=O)=O)c1 [Compound 169] |
| < 4.00 | CCOC(=O)c1cc(-c2ccncc2)sc1NC(=O)COC(=O)c1cccc(NS(C)(=O)=O)c1 [Compound 170] |
| < 4.00 | CS(=O)(=O)Nc1cccc(C(=O)N2CCC(C(=O)Nc3nnc(-c4ccccc4)s3)C2)c1 (stereo not shown) [Compound 173] |
| < 4.00 | CCOC(=O)c1cc(-c2ccccc2)sc1NC(=O)COC(=O)c1cccc(S(C)(=N)=O)c1 (stereo not shown) [Compound 174] |
| < 4.00 | CCOC(=O)c1cc(-c2ccccc2)sc1NC(=O)Cn1cnc2c(N)ncnc21 [Compound 176] |
| < 4.00 | CCOC(=O)c1cc(-c2ccccc2)sc1NC(=O)COC(=O)c1cccc(CNS(C)(=O)=O)c1 [Compound 177] |
| < 4.00 | CCOC(=O)c1cc(-c2ccccc2)sc1NC(=O)COC(=O)N1CCN(S(C)(=O)=O)CC1 [Compound 178] |
| ≥ 4.60 | CCOC(=O)c1cc(-c2ccccc2)ncc1NC(=O)COC(=O)c1cccc(NS(C)(=O)=O)c1 [Compound 189] |
